Assay [1] has as its target T1, human EP2 receptor (Homo sapiens, UniProt P43116).
T1 construct: expressed in transfected cells
Put plainly: Binding ability to human EP receptors ([3H]PGE2 displacement), EP2. The conditions noted are these: membranes expressing human EP2; [3H]PGE2 3 nM; Cheng-Prusoff; read-out: pKi (M) EP2 (converted). In short, it runs like this:
(§1)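 Membranes from cells stably expressing human EP2, EP3 or EP4 incubated to equilibrium with [3H]PGE2 and compound at 0.1 to 10 000 nM. Non-specific binding defined with 10 uM PGE2; bound label separated by vacuum filtration and quantified by scintillation counting.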

Assay [2] addresses T2, human EP3 receptor (Homo sapiens, UniProt P43115).
T2 construct: expressed in transfected cells
T2 sequence (P43115 1-390): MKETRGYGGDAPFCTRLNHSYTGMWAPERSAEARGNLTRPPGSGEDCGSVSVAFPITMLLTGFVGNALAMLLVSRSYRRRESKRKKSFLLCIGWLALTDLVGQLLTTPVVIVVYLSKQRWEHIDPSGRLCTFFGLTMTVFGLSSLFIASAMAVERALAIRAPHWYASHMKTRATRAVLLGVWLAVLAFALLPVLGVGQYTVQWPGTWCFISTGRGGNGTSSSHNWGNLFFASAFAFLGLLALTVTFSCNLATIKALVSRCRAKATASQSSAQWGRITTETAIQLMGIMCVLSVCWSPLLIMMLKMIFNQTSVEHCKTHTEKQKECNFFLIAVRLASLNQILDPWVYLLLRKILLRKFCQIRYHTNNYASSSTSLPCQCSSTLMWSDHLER
The assay is described as follows: Binding ability to human EP receptors ([3H]PGE2 displacement), EP3. Conditions: membranes expressing human EP3; [3H]PGE2 2.5 nM; Cheng-Prusoff; read-out: pKi (M) EP3 (converted). The gist of the method: as §1

The target in assay [3] is T3, human EP4 receptor (Homo sapiens, UniProt P35408).
T3 construct: expressed in transfected cells
The assay is described as follows: Binding ability to human EP receptors ([3H]PGE2 displacement), EP4. The conditions noted are these: membranes expressing human EP4; [3H]PGE2 1 nM; Cheng-Prusoff; read-out: pKi (M) EP4 (converted). The gist of the method: as §1

Assay [4] addresses T4, human EP2 prostanoid receptors (Homo sapiens, UniProt P43116).
T4 construct: expressed in transfected cells; host or cells: HEK-293
Put plainly: Agonist activity at recombinant human EP2 prostanoid receptors (cAMP in HEK-293 clones). The assay is classed as cell-based. Conditions: for EC50: HEK-293 stably transfected with human EP2, cAMP accumulation, read-out: pEC50 EP2 (converted); for activity (EP2 part): functional classification at EP2.

T3 sequence (P35408 whole entry): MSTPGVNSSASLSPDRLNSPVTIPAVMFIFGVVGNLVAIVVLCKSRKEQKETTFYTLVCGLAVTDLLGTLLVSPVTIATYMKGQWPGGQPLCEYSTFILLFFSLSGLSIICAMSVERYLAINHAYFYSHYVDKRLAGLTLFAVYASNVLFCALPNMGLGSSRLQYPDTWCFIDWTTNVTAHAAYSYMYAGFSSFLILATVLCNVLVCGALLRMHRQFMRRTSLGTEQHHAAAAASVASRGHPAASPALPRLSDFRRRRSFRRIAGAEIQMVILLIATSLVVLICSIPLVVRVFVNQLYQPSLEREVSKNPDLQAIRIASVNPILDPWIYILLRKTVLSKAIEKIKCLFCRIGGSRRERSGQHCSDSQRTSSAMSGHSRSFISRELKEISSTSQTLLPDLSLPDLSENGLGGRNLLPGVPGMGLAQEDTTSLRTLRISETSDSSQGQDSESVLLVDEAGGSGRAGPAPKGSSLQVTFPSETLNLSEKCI
T4 sequence (P43116 whole entry): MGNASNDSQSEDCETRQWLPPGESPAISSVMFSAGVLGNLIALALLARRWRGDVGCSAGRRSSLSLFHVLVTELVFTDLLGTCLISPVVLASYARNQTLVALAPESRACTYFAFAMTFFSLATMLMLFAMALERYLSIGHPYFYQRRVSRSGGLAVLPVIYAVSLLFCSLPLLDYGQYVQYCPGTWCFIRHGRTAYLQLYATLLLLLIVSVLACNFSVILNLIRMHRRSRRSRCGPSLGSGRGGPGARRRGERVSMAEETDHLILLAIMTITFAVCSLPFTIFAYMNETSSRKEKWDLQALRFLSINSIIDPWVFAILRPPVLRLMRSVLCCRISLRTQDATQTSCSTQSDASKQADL
T1 sequence (P43116 whole entry): as above

Consider `O=C(Nc1cccc(Cc2nnn[nH]2)c1)c1ccc(-c2cccc(Cl)c2)o1` [Compound 81, 5-(3-Chloro-phenyl)-furan-2-carboxylic acid [3-(1H-tetrazol-5-ylmethyl)-phenyl]-amide], for which the Ki in assay [1] was less than 1e-07 M; in assay [2] it was greater than 1e-05 M; in assay [3] it was greater than 1e-05 M. Moreover, in assay [4], the EC50 is less than 0.1 µM. The “activity (EP2 part)” value in assay [4] is recorded as “EP2 Agonist”.

In the case of `O=C(Nc1cccc(Cc2nnn[nH]2)c1)c1ccc(-c2cc(Cl)cc(Cl)c2)o1` [Compound 82, 5-(3,5-Dichloro-phenyl)-furan-2-carboxylic acid [3-(1H-tetrazol-5-ylmethyl)-phenyl]-amide], the Ki is less than 1e-07 M in assay [1], greater than 1e-05 M in assay [2] and greater than 1e-05 M in assay [3]. Also, in assay [4], the EC50 was less than 0.1 µM. Besides, the “activity (EP2 part)” value in assay [4] is “EP2 Agonist”.

`O=C(Nc1cccc(Cc2nnn[nH]2)c1)c1ccc(-c2ccc(F)cc2)o1` [Compound 85, 5-(4-Fluoro-phenyl)-furan-2-carboxylic acid [3-(1H-tetrazol-5-ylmethyl)-phenyl]-amide]: the Ki was less than 1e-07 M in assay [1], greater than 1e-05 M in assay [2] and greater than 1e-05 M in assay [3]. The EC50 in assay [4] is less than 0.1 µM. Besides, the “activity (EP2 part)” value in assay [4] is “EP2 Agonist”.

As for `O=C(Nc1cccc(Cc2nnn[nH]2)c1)c1ccc(-c2ccc(Cl)cc2)o1` [Compound 87, 5-(4-Chloro-phenyl)-furan-2-carboxylic acid [3-(1H-tetrazol-5-ylmethyl)-phenyl]-amide], the figures for the Ki in assay [1], in assay [2] and in assay [3] were less than 1e-07 M, greater than 1e-05 M and greater than 1e-05 M, respectively. In addition, in assay [4], the EC50 was less than 0.1 µM. In assay [4], the “activity (EP2 part)” value is “EP2 Agonist”.

Turning to `O=C(Nc1cccc(/C=C/c2nnn[nH]2)c1)c1ccc(-c2ccccc2)o1` [Compound 89, 5-Phenyl-furan-2-carboxylic acid {3-[2-(1H-tetrazol-5-yl)-vinyl]-phenyl}-amide], the Ki was less than 1e-07 M in assay [1], greater than 1e-05 M in assay [2] and greater than 1e-05 M in assay [3]. Besides, the EC50 in assay [4] was less than 0.1 µM. In addition, the “activity (EP2 part)” value in assay [4] was “EP2 Agonist”.

Consider `O=C(Nc1cccc(/C=C/c2nnn[nH]2)c1)c1ccc(-c2cccc(Cl)c2)o1` [Compound 90, 5-(3-Chloro-phenyl)-furan-2-carboxylic acid {3-[2-(1H-tetrazol-5-yl)-vinyl]-phenyl}-amide], for which the Ki was less than 1e-07 M in assay [1], greater than 1e-05 M in assay [2] and greater than 1e-05 M in assay [3]. For the same molecule, the EC50 in assay [4] was less than 0.1 µM. In assay [4], the “activity (EP2 part)” value is given as “EP2 Agonist”.

In the case of `O=C(Nc1cccc(Cc2nnn[nH]2)c1)c1cccc(-c2ccccc2)n1` [Compound 92, 6-Phenyl-pyridine-2-carboxylic acid [3-(1H-tetrazol-5-ylmethyl)-phenyl]-amide], the results for the Ki in assay [1], in assay [2] and in assay [3] were less than 1e-06 M, greater than 1e-05 M and greater than 1e-05 M, respectively. In assay [4], the EC50 is less than 0.1 µM. Also, the “activity (EP2 part)” value in assay [4] is “EP2 Agonist”.

Regarding `O=C(Nc1cccc(Cc2nnn[nH]2)c1)c1cccc(-c2ccc(F)cc2)n1` [Compound 93, 6-(4-Fluoro-phenyl)-pyridine-2-carboxylic acid [3-(1H-tetrazol-5ylmethyl)-phenyl]-amide], the Ki was less than 1e-07 M in assay [1], greater than 1e-05 M in assay [2] and greater than 1e-05 M in assay [3]. Moreover, in assay [4], the EC50 is less than 0.1 µM. Further, the “activity (EP2 part)” value in assay [4] is listed as “EP2 Agonist”.

For `O=C(Nc1cccc(Cc2nnn[nH]2)c1)c1cccc(-c2cccc(F)c2)n1` [Compound 94, 6-(3-Fluoro-phenyl)-pyridine-2-carboxylic acid [3-(1H-tetrazol-5ylmethyl)-phenyl]-amide], the Ki in assay [1] was less than 1e-07 M; in assay [2], greater than 1e-05 M; in assay [3] it was greater than 1e-05 M. In addition, in assay [4], the EC50 is less than 0.1 µM. The “activity (EP2 part)” value in assay [4] is listed as “EP2 Agonist”.

Consider `O=C(Nc1cccc(Cc2nnn[nH]2)c1)c1cccc(-c2ccc(Cl)cc2)n1` [Compound 95, 6-(4-Chloro-phenyl)-pyridine-2-carboxylic acid [3-(1H-tetrazol-5ylmethyl)-phenyl]-amide], for which the Ki was less than 1e-07 M in assay [1], greater than 1e-05 M in assay [2] and greater than 1e-05 M in assay [3]. The EC50 in assay [4] is less than 0.1 µM. The “activity (EP2 part)” value in assay [4] is recorded as “EP2 Agonist”.

Take `O=C(Nc1ccc2sc(C(=O)O)cc2c1)c1ccc(-c2ccccc2)o1` [Compound 97, 5-[(5-Phenyl-furan-2-carbonyl)-amino]-benzo[b]thiophene-2-carboxylic acid]: the Ki is less than 1e-06 M in assay [1], greater than 1e-05 M in assay [2] and greater than 1e-05 M in assay [3]. Also, the EC50 in assay [4] was less than 1 µM. In addition, the “activity (EP2 part)” value in assay [4] is listed as “EP2 Agonist”.

`CC/C(=C\c1cccc(NC(=O)c2ccc(-c3ccccc3)o2)c1)C(=O)O` [Compound 98, 2-{3-[(5-Phenyl-furan-2-carbonyl)-amino]-benzylidene}-butyric acid]: the values for the Ki in assay [1], in assay [2] and in assay [3] were less than 1e-06 M, greater than 1e-05 M and greater than 1e-05 M, respectively. Further, the EC50 in assay [4] was less than 1 µM. Moreover, in assay [4], the “activity (EP2 part)” value is given as “EP2 Agonist”.

`O=C(O)/C=C/c1cccc(NC(=O)c2ccc(-c3cccc(F)c3)o2)c1` [Compound 100, 3-(3-{[5-(3-Fluoro-phenyl)-furan-2-carbonyl]-amino}-phenyl)-acrylic acid]: the values for the Ki in assay [1], in assay [2] and in assay [3] were less than 1e-07 M, greater than 1e-05 M and less than 1e-05 M, respectively. In addition, the EC50 in assay [4] is less than 0.1 µM. Moreover, the “activity (EP2 part)” value in assay [4] is listed as “EP2 Agonist”.

Regarding `O=C(O)/C=C/c1cccc(NC(=O)c2ccc(-c3ccc4c(c3)OCO4)o2)c1` [Compound 101, 3-{3-[(5-Benzo[1,3]dioxol-5-yl-furan-2-carbonyl)-amino]-phenyl}-acrylic acid], the Ki was less than 1e-07 M in assay [1], greater than 1e-05 M in assay [2] and greater than 1e-05 M in assay [3]. Besides, in assay [4], the EC50 was less than 0.1 µM. Also, the “activity (EP2 part)” value in assay [4] was “EP2 Agonist”.

Consider `O=C(O)/C=C/c1cccc(NC(=O)c2cc(-c3ccccc3)ccc2F)c1` [Compound 107, 3-{3-[(4-Fluoro-biphenyl-3-carbonyl)-amino]-phenyl}-acrylic acid], for which the Ki in assay [1] was less than 1e-07 M; in assay [2], greater than 1e-05 M; in assay [3], greater than 1e-05 M. Also, the EC50 in assay [4] is less than 0.1 µM. The “activity (EP2 part)” value in assay [4] is “EP2 Agonist”.

Take `O=C(O)/C=C/c1cccc(NC(=O)c2cc(-c3cccc(F)c3)ccc2F)c1` [Compound 108, 3-{3-[(4,3′-Difluoro-biphenyl-3-carbonyl)-amino]-phenyl}-acrylic acid]: the Ki was less than 1e-07 M in assay [1], greater than 1e-05 M in assay [2] and greater than 1e-05 M in assay [3]. In addition, the EC50 in assay [4] is less than 0.1 µM. Moreover, the “activity (EP2 part)” value in assay [4] is on record as “EP2 Agonist”.

As to `O=C(O)/C=C/c1cccc(NC(=O)c2cccc(-c3cccc(F)c3)n2)c1` [Compound 110, 3-(3-{[6-(3-Fluoro-phenyl)-pyridine-2-carbonyl]-amino}-phenyl)-acrylic acid], the Ki in assay [1] was less than 1e-07 M; in assay [2] it was greater than 1e-05 M; in assay [3], greater than 1e-05 M. Moreover, the EC50 in assay [4] was less than 0.1 µM. For the same molecule, the “activity (EP2 part)” value in assay [4] is reported as “EP2 Agonist”.

In the case of `O=C(O)Cc1cccc(NC(=O)c2cc(-c3cccc(F)c3)ccc2F)c1` [Compound 111], the Ki in assay [1] is less than 1e-07 M; in assay [2] it was greater than 1e-05 M; in assay [3], greater than 1e-05 M. The EC50 in assay [4] is less than 0.1 µM. For the same molecule, the “activity (EP2 part)” value in assay [4] is recorded as “EP2 Agonist”.

`O=C(O)/C=C/c1cccc(NC(=O)c2cc(-c3ccc(F)cc3)ccc2F)c1` [Compound 112, 3-{3-[(4,4′-Difluoro-biphenyl-3-carbonyl)-amino]-phenyl}-acrylic acid]: the Ki in assay [1] is less than 1e-07 M; in assay [2], greater than 1e-05 M; in assay [3], greater than 1e-05 M. Moreover, the EC50 in assay [4] was less than 0.1 µM. Also, the “activity (EP2 part)” value in assay [4] was “EP2 Agonist”.

For the molecule `O=C(O)Cc1cccc(NC(=O)c2cccc(-c3cccc(F)c3)n2)c1` [Compound 113, (3-{[6-(3-Fluoro-phenyl)-pyridine-2-carbonyl]-amino}-phenyl)-acetic acid], the Ki in assay [1] was less than 1e-07 M; in assay [2], greater than 1e-05 M; in assay [3], greater than 1e-05 M. The EC50 in assay [4] is less than 0.1 µM. In assay [4], the “activity (EP2 part)” value was “EP2 Agonist”.

With `O=C(O)/C=C/c1cccc(NC(=O)c2csc(-c3ccccc3)n2)c1` [Compound 115, 3-{3-[(2-Phenyl-thiazole-4-carbonyl)-amino]-phenyl}-acrylic acid], the Ki in assay [1] is less than 1e-07 M; in assay [2], greater than 1e-05 M; in assay [3], greater than 1e-05 M. In addition, the EC50 in assay [4] is less than 0.1 µM. Further, in assay [4], the “activity (EP2 part)” value is on record as “EP2 Agonist”.

(Values after US7326732B2, “EP2 receptor agonists” (Pharmagene Laboratories Limited, priority 2004, dated 2008).)
